Data as given in article PMC4501119, “Cholestenoic acid, an endogenous cholesterol metabolite, is a potent γ-secretase modulator” (Molecular Neurodegeneration, 2015).
Where “and” joins values, the source holds several entries; their conditions need not be identical. Equal entries are not always repeated.

Columns and labels:
γ-secretase = target: T1, γ-secretase (Homo sapiens, UniProt P49768); assay: In vitro γ-secretase (broken cell) assay, membranes of H4 neuroglioma cells overexpressing APP695wt, Aβ ELISA; format: biochemical; conditions: vs DMSO control, 2 h incubation
T1 construct: The membrane derived from the H4 neuroglioma cells overexpressing APP695wt were prepared by carbonate extraction; endogenous in cells; host or cells: H4 neuroglioma cells overexpressing APP695wt (membranes, carbonate extraction)
Method: Broken cell assays were performed with slight modifications from the previous studies. The membrane derived from the H4 neuroglioma cells overexpressing APP695wt were prepared by carbonate extraction and incubated at 37 °C for 2 h with CA at various concentrations. Aβ levels were quantified by sandwich ELISAs. For Aβ and AICD spectra, the recombinant C100Flag proteins were overexpressed and purified from Escherichia coli BL21 using a HiTrap Q-column (GE Life Science, Little Chalfont, U.K.). The membrane containing γ-secretase was isolated from the CHO S-1 cell line using sodium carbonate (100 mM, pH 11.0). For the in vitro γ-secretase assay, C100Flag recombinant protein at 25 μM was incubated with the membrane (100 μg/mL) in the presence of CA (20 μM) and DMSO in 150 mM sodium citrate buffer (pH 6.8) containing complete protease inhibitor (Roche, Indianapolis, IN) for 2 h at 37 °C.
Monoclonal antibodies to Aβ were generated by the Mayo Clinic Immunology Core facilities (Jacksonville, FL, USA). Ab5 recognizes an epitope in the amino terminus of Aβ (Aβ1-16), recognizes both monomeric and aggregated Aβ, and is human specific. […] Ab 2.1.3 was raised against Aβ35-42 and is specific for Aβx-42. […] For cell-based screens, Aβ was captured from conditioned medium with either Ab5, Ab38, Ab13.1.1, or Ab2.1.3 (coated at 10-50 μg/ml in EC buffer: 5 mM NaH2PO4-H2O, 20 mM Na2HPO4, 400 mM NaCl, 2.5 mM EDTA-full name, 151.5 μM BSA, 813 μM CHAPS, and 7.7 mM NaN3) on Immulon 4HBX Flat-Bottom Microfilter 96-well plates (Thermo Scientific, Waltham, MA, USA). Total Aβ level was determined by capture with Ab5 and detected with horseradish peroxidase (HRP)-conjugated 4G8 (a monoclonal antibody against Aβ17-24; Covance, Waltham, MA, USA) with the other Aβ peptides detected with HRP-conjugated Ab5. For the cell-free assay and measuring mouse endogenous Aβ, HRP-conjugated 4G8 was used as the secondary detection antibody. Aβ standards (Bachem, King of Prussia, PA, USA) were prepared by dissolving in hexafluoroisopropanol (HFIP) at 1 mg/ml with sonication, dried under nitrogen, resuspended at 2 mg/ml HFIP, sonicated again and dried under nitrogen. The resulting Aβ was resuspended in 0.01 % ammonium hydroxide, portioned into aliquots in EC buffer, and frozen at −80 °C. Following these steps, the Aβ is monomeric, as determined by size-exclusion chromatography.

[1] = Plasma CA concentration after IP injection (HPLC-MS-MS); format: in vivo, mouse (C57BL/6); conditions: mice
Method: (§1) 25(R)-CA powder was initially dissolved in DMSO (<4.5 % in the final mixture) and then combined with polyethylene glycol (15)-hydroxystearate (Solutol), ethanol, and water at a ratio of (15:10:75). One molar equivalent of sodium hydroxide was added to the mixture. We performed CA intraperitoneal (IP) injections to wild-type mice (C57BL/6 or CF-1). The mice were injected with 25(R)-CA on the right side of the abdomen. The injections have been performed with various time points (30 min, 1 h, 2 h, and 3 h) and with multiple doses (30 mg per kg (mg/kg), 60 mg/kg, 75 mg/kg and 100 mg/kg). The number of each cohort is 6–8. We used 30 mg/kg of CA for the time-course experiments, and for the dose–response experiments the end-point was set at 30 min. The brains and serum are harvested and frozen for brain Aβ extraction.
The plasma samples were extracted using published solid phase extraction method (72) and analyzed by HPLC-MS-MS. Briefly, 0.1 ml mouse plasma samples after adding 20 μl of D3-CA as internal standard were preconditioned with 1.4 ml of ethanol (99.9 %), and 0.5 ml of water, centrifuged at 4 °C, 4000 rpm for 10 min. This solution was then loaded onto a Sep-Pak tC18 (SPE1) solid phase extraction cartridge which were preconditioned with 70 % ethanol. […]

[2] = Tolerability of IP doses in mice; format: in vivo, mouse; conditions: up to the highest dose 100 mg/kg
Method: as §1

For `CC(CCC[C@@H](C)C(=O)O)[C@H]1CCC2C3CC=C4C[C@@H](O)CC[C@]4(C)C3CC[C@@]21C` (stereo partly drawn) [Cmpd 2a, 25(R)-cholestenoic acid], the “change in total Aβ levels” value (γ-secretase) was “without any significant changes”, the “decrease of Aβ42 production” value (γ-secretase; CA at 150 μM, listed as CA) was 50% and 51% and the “plasma CA concentration” value ([1]; 30 mg/kg IP, listed as CA) was 200 ng/mL and ~ 500 nM. For the same compound, the concentration at 30 min ([1]; C57BL/6, mouse, plasma, intraperitoneal, 100 mg/kg IP) was 4000 ng/mL and ~10 µM and the tolerability [2] was “well tolerated”.
